In PubChem BioAssay AID1199 (EPA DSSTox, 2008) one finds Potency and outcome data, which are given here for 84 molecules.

Calls of active or inactive are those of the source.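 The calls were made as follows: active = a tumour-causing dose and a tumour site recorded for mice in at least one sex group; inconclusive = only government mouse studies exist and were judged inadequate; inactive = mouse studies exist but none gave tumours.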

The first series concerns mouse carcinogenicity bioassay, TD50 from CPDB. Kind of series: DSSTox (CPDBAS) Carcinogenic Potency Database Summary Mouse Bioassay Results.
Details: not given
In short, it runs like this: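 Values are TD50 carcinogenic potencies from mouse chronic bioassays, taking the most positive result for each sex-species. Sources are published literature and NCI/NTP studies; target sites reflect author-reported positive findings.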
On to `O=C1c2cccc(O)c2C(=O)c2c(O)cccc21`, for which the Potency is 0.837 mmol/kg/day.
The same measure, in the same setting: then `CCC1NC(=O)C2C(Cl)C(Cl)CN2C(=O)C(CO)NC(=O)CC(c2ccccc2)NC(=O)C(CO)NC1=O` (stereo not drawn), with 0.0412 mmol/kg/day.

Still in this series, the particulars now being: TD50_Mouse_Note: TD50 is harmonic mean of more than one positive test; TargetSites_Mouse_Female: adrenal gland; liver.
Regarding `c1ccoc1`, the Potency was 0.04 mmol/kg/day.

Staying with this series, now noted: TD50_Mouse_Note: TD50 is harmonic mean of more than one positive test; TargetSites_Mouse_Female: all tumor bearing animals.
As to `OCCN(CCO)CCO`, the Potency was 0.67 mmol/kg/day.

Staying with this series, now noted: TD50_Mouse_Note: TD50 is harmonic mean of more than one positive test; TargetSites_Mouse_Female: clitoral gland; lung; stomach.
On to `C/C=N/N(C)C=O`, for which the Potency was 0.0251 mmol/kg/day.

Still in this series, the particulars now being: TD50_Mouse_Note: TD50 is harmonic mean of more than one positive test; TargetSites_Mouse_Female: harderian gland; hematopoietic system; lung; mammary gland; uterus.
`C1CO1`: the Potency is 1.45 mmol/kg/day.

The same series, now with this note: TD50_Mouse_Note: TD50 is harmonic mean of more than one positive test; TargetSites_Mouse_Female: harderian gland; liver; thyroid gland.
Regarding `Nc1ccc(Oc2ccc(N)cc2)cc1`, the Potency was 0.168 mmol/kg/day.

Still in this series, the particulars now being: TD50_Mouse_Note: TD50 is harmonic mean of more than one positive test; TargetSites_Mouse_Female: harderian gland; lung; subcutaneous tissue.
Take `OCC(CO)(CBr)CBr`: the Potency is 0.523 mmol/kg/day.

The same series, now with this note: TD50_Mouse_Note: TD50 is harmonic mean of more than one positive test; TargetSites_Mouse_Female: harderian gland; mammary gland; skin; subcutaneous tissue; uterus.
As to `OCC1CO1` (stereo not drawn), the Potency is 0.468 mmol/kg/day.

Still in this series, the particulars now being: TD50_Mouse_Note: TD50 is harmonic mean of more than one positive test; TargetSites_Mouse_Female: liver.
In the case of `ClC1C(Cl)C(Cl)C(Cl)C(Cl)C1Cl` (stereo not drawn), the Potency was 0.0956 mmol/kg/day.
Same read-out and setting: then `COC(=O)C(c1ccccc1)C1CCCCN1` (stereo not drawn), with 0.371 mmol/kg/day; and `C=CC(O)c1ccc2c(c1)OCO2` (stereo not drawn), with 0.4 mmol/kg/day.
With `NC(=O)OCC(COC(N)=O)c1ccccc1`, the Potency is 31.1 mmol/kg/day.
Regarding `O=[N+]([O-])c1ccc2nc[nH]c2c1`, the Potency is 2.28 mmol/kg/day.
Same read-out and setting: then `ClC(Cl)Br`, with 0.291 mmol/kg/day; and `Brc1cc(Br)c(-c2cc(Br)c(Br)cc2Br)cc1Br`, with 0.000529 mmol/kg/day; and `CCC1(c2ccccc2)C(=O)NCNC1=O`, with 0.12 mmol/kg/day.
For `CCc1ccccc1`, the Potency was 15.1 mmol/kg/day.
Still for that read-out and setting: then `CNc1ccc(N(CCO)CCO)cc1[N+](=O)[O-]`, with 0.308 mmol/kg/day.

The same series, now with this note: TD50_Mouse_Note: TD50 is harmonic mean of more than one positive test; TargetSites_Mouse_Female: liver; lung.
On to `ClC1C(Cl)C(Cl)C(Cl)C(Cl)C1Cl` (stereo not drawn), for which the Potency is 0.106 mmol/kg/day.

Staying with this series, now noted: TD50_Mouse_Note: TD50 is harmonic mean of more than one positive test; TargetSites_Mouse_Female: liver; lung; thyroid gland.
For the molecule `Nc1cccc2c(N)cccc12`, the Potency is 1.02 mmol/kg/day.

The series is the same for the next values; noted with them: TD50_Mouse_Note: TD50 is harmonic mean of more than one positive test; TargetSites_Mouse_Female: liver; thyroid gland.
For `Nc1ccc(Sc2ccc(N)cc2)cc1`, the Potency is 0.153 mmol/kg/day.

The same series, now with this note: TD50_Mouse_Note: TD50 is harmonic mean of more than one positive test; TargetSites_Mouse_Female: lung; vascular system.
For the molecule `CN(C)NC(=O)CCC(=O)O`, the Potency is 6.43 mmol/kg/day.

Staying with this series, now noted: TD50_Mouse_Note: TD50 is harmonic mean of more than one positive test; TargetSites_Mouse_Female: mammary gland.
Consider `C=C(Cl)CSC(=S)N(CC)CC`, for which the Potency was 0.189 mmol/kg/day.

The series is the same for the next values; noted with them: TD50_Mouse_Note: TD50 is harmonic mean of more than one positive test; TargetSites_Mouse_Female: no positive results.
As for `C=C1C(C)(C)[C@@]2(Cl)C(Cl)[C@]1(Cl)C(Cl)(Cl)C2(Cl)Cl` (stereo partly drawn), the Potency is 0.00234 mmol/kg/day.

The series is the same for the next values; noted with them: TD50_Mouse_Note: TD50 is harmonic mean of more than one positive test; TargetSites_Mouse_Female: peritoneal cavity.
In the case of `ClCOCCl`, the Potency was 0.00158 mmol/kg/day.

Still in this series, the particulars now being: TD50_Mouse_Note: TD50 is harmonic mean of more than one positive test; TargetSites_Mouse_Female: urinary bladder.
As to `COc1ccccc1N`, the Potency was 6.05 mmol/kg/day.

The same series, now with this note: TD50_Mouse_Note: TD50 is harmonic mean of more than one positive test; TargetSites_Mouse_Female: vascular system.
`Cc1ccc2c(c1[N+](=O)[O-])C(=O)c1ccccc1C2=O`: the Potency is 0.00584 mmol/kg/day.

The same series, now with this note: TD50_Mouse_Note: TD50 is harmonic mean of more than one positive test; greater than ten-fold variation among TD50 values for positive res; TargetSites_Mouse_Female: hematopoietic system; liver; lung.
Turning to `Clc1ccc(C(c2ccc(Cl)cc2)C(Cl)(Cl)Cl)cc1`, the Potency is 0.0361 mmol/kg/day.

The same series, now with this note: TD50_Mouse_Note: TD50 is harmonic mean of more than one positive test; harmonic mean of TD50 includes a value for upper 99% confidence li; TargetSites_Mouse_Female: liver.
On to `ClC1C(Cl)C(Cl)C(Cl)C(Cl)C1Cl` (stereo not drawn), for which the Potency was 0.0509 mmol/kg/day.
Same read-out and setting: next, `CNc1ccc(N(CCO)CCO)cc1[N+](=O)[O-]`: 0.338 mmol/kg/day.

The series is the same for the next values; noted with them: TD50_Mouse_Note: TD50 is harmonic mean of more than one positive test; no positive results are statistically significant; TargetSites_Mouse_Female: no positive results.
In the case of `COc1ccc(O)c(C(C)(C)C)c1`, the Potency was 30.7 mmol/kg/day.

Still in this series, the particulars now being: TD50_Mouse_Note: TD50 value is overestimated as upper 99% confidence limit from study with 100% tumor incidence but no lifetable; harmoni.
As for `ClC1C(Cl)C(Cl)C(Cl)C(Cl)C1Cl` (stereo not drawn), the Potency was 0.0228 mmol/kg/day.
The same measure, in the same setting: next, `Cc1cccc(Nc2cc(Cl)nc(SCC(=O)O)n2)c1C`: 0.0334 mmol/kg/day.

The series is the same for the next values; noted with them: TD50_Mouse_Note: no positive results.
For `NC(CCC(=O)O)C(=O)O` (stereo not drawn), the outcome was “inactive; no positive results”.

The same series, now with this note: TD50_Mouse_Note: no positive results; TargetSites_Mouse_Female: no positive results.
As for `CCCCCCCCCc1ccc(OCCOCCO)cc1`, the outcome was inactive.
Same read-out and setting: next, `CCC(O)OC(O)CC` (stereo not drawn): “inactive; no positive results”; `O=C1C(c2[nH]c3ccc(S(=O)(=O)O)cc3c2O)=Nc2ccc(S(=O)(=O)O)cc21`: “inactive; no positive results”; `Cc1ccc(OP(=O)(Oc2ccc(C)cc2)Oc2ccc(C)cc2)cc1`: “inactive; no positive results”.
In the case of `CCn1cc(C(=O)O)c(=O)c2cc3c(cc21)OCO3`, the outcome was “inactive; no positive results”.
On the same count and under the same terms, then `CNC(=S)N(C)C`, with “inactive; no positive results”; and `CNC(=O)Oc1cc(C)c(N(C)C)c(C)c1`, with “inactive; no positive results”; and `OC[C@@H](O)[C@@H](O)[C@H](O)[C@H](O)CO`, with “inactive; no positive results”.
With `Oc1cccc2cccnc12`, the outcome was “inactive; no positive results”.
The same measure, in the same setting: next, `O=c1[nH]c(=O)n(C2CCCO2)cc1F` (stereo not drawn): “inactive; no positive results”; `C1N2CN3CN1CN(C2)C3`: “inactive; no positive results”.
For the molecule `C/C=C\c1ccc(OC)cc1`, the outcome was inactive.
Still for that read-out and setting: next, `CN(C)C(=O)NC1CC2CC1C1CCCC21` (stereo not drawn): “inactive; no positive results”; `Nc1ccc(N=Nc2ccc(N)cc2)cc1`: “inactive; no positive results”.
The same measure, in the same setting: then `CCOP(=S)(OCC)Oc1ccc([N+](=O)[O-])cc1`, with “inactive; no positive results”.
Same read-out and setting: next, `COC(C(=O)O)c1ccccc1` (stereo not drawn): “inactive; no positive results”.
For the molecule `c1ccc2[nH]ccc2c1`, the outcome was inactive.
The same measure, in the same setting: next, `Nc1nc(N)nc(N)n1`: “inactive; no positive results”; `Nc1ccc2ccccc2c1S(=O)(=O)O`: “inactive; no positive results”.
With `O=S1OCC2C(CO1)C1(Cl)C(Cl)=C(Cl)C2(Cl)C1(Cl)Cl` (stereo not drawn), the outcome is “inactive; no positive results”.
The same measure, in the same setting: then `Cc1cc(OC(=O)N(C)C)n(C(C)C)n1`, with “inactive; no positive results”.
Consider `CCN(CC)C(=O)/C(Cl)=C(\C)OP(=O)(OC)OC`, for which the outcome was “inactive; no positive results”.
Same read-out and setting: then `O=C1NS(=O)(=O)c2ccccc21`, with “inactive; no positive results”; and `c1ccc2[nH]c(-c3cscn3)nc2c1`, with “inactive; no positive results”; and `Nc1cc([N+](=O)[O-])ccc1C(=O)O`, with “inactive; no positive results”.
Still for that read-out and setting: next, `O=C(O)c1cccnc1`: “inactive; no positive results”; `N#CC(c1ccccc1)c1ccccc1`: “inactive; no positive results”; `CC[C@H](OC(C)=O)C(C[C@H](C)N(C)C)(c1ccccc1)c1ccccc1`: “inactive; no positive results”.
The same measure, in the same setting: next, `COc1ccc([C@@H]2CC(=O)c3c(O)cc(O[C@@H]4O[C@H](CO[C@@H]5O[C@@H](C)[C@H](O)[C@@H](O)[C@H]5O)[C@@H](O)[C@H](O)[C@H]4O)cc3O2)cc1OC`: “inactive; no positive results”; `c1ccc(Nc2ccc3ccccc3c2)cc1`: “inactive; no positive results”; `COC(=O)c1ccc(C(=O)OC)cc1`: “inactive; no positive results”.
Regarding `COc1cc2c(c3oc(=O)c4c(c13)CCC4=O)C1C=COC1O2` (stereo not drawn), the outcome is “inactive; no positive results”.
On the same count and under the same terms, next, `COc1cc(-c2ccc(N=C=O)c(OC)c2)ccc1N=C=O`: “inactive; no positive results”.
For the molecule `C=CCOC(=O)c1ccccc1C(=O)OCC=C`, the outcome is “inactive; no positive results”.
`CC(C)Nc1nc(Cl)nc(NC(C)C)n1`: the outcome is “inactive; no positive results”.
`CN(C)C(=O)Nc1ccc(Cl)cc1`: the outcome was “inactive; no positive results”.
On the same count and under the same terms, then `Cc1ccc(N)cc1Cl`, with “inactive; no positive results”.
As to `CCCCCCCCCCCCN=C(N)N`, the outcome is “inactive; no positive results”.
For the molecule `CC#N`, the outcome is “inactive; no positive results”.
On to `CC1(C)S[C@@H]2[C@H](NC(=O)[C@H](N)c3ccccc3)C(=O)N2[C@H]1C(=O)O`, for which the outcome is “inactive; no positive results”.
Still for that read-out and setting: then `Nc1cccc(N)c1`, with “inactive; no positive results”; and `Cc1c(N)cccc1N`, with “inactive; no positive results”.
Turning to `COc1ccc(CN(CCN(C)C)c2ccccn2)cc1`, the outcome was “inactive; no positive results”.
Turning to `CC(C)C=O`, the outcome was “inactive; no positive results”.
Still for that read-out and setting: then `CN(C)[C@@H]1C(=O)C(C(N)=O)=C(O)[C@@]2(O)C(=O)C3=C(O)c4c(O)cccc4[C@@](C)(O)[C@H]3[C@H](O)[C@@H]12`, with “inactive; no positive results”.
The same measure, in the same setting: next, `Nc1ccc(S(=O)(=O)c2ccc(N)cc2)cc1`: “inactive; no positive results”; `CN(C)CCO`: “inactive”.

The series is the same for the next values; noted with them: TD50_Mouse_Note: positive test results only by intraperitoneal or intravenous injection; TD50 is harmonic mean of more than one positive; TargetSites_Mouse_Female: hematopoietic system; lung; nervous system; uterus.
In the case of `CNNCc1ccc(C(=O)NC(C)C)cc1`, the Potency was 0.00216 mmol/kg/day.

Staying with this series, now noted: TargetSites_Mouse_BothSexes: no positive results.
For `O=C(O)C1[O][Sb]2[O]C(=O)C([O]2)C(C(=O)O)[O][Sb]2[O]C(=O)C1[O]2` (stereo not drawn), the result was inactive.

Staying with this series, now noted: TargetSites_Mouse_Female: liver.
On to `Nc1cc(Cl)cc(C(=O)O)c1Cl`, for which the Potency is 25.4 mmol/kg/day.

Still in this series, the particulars now being: TargetSites_Mouse_Female: no positive results.
For `CCCC(Cl)CCC(Cl)CCC(Cl)CCC(Cl)CCC(Cl)CCC(Cl)CCC(C)Cl` (stereo not drawn), the Potency is 11.6 mmol/kg/day.
As to `[O-][Br+2]([O-])O`, the Potency was 0.322 mmol/kg/day.
Still for that read-out and setting: next, `OC(c1ccc(Cl)cc1)(c1ccc(Cl)cc1)C(Cl)(Cl)Cl`: 0.0888 mmol/kg/day.
